Among the test systems are CAKI-1 renal; COLO 205 colon; EKVX NSCLC; HL-60(TB) leukemia; NCI-H226 lung; RPMI-8226 leukemia; SK-MEL-28 melanoma; SN12C renal; UACC-62 melanoma; HS 578T breast.
Holding throughout (assay): DTP human tumour cell line panel, 48 h

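Each compound was tested at five concentrations against cells in 96-well plates for 48 hours. At the GI50, growth is halved. At the TGI there is no net growth.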

As usually defined, the TGI is the concentration at which net growth stops. Lower therefore signals more potent growth arrest. Take `NC(=O)c1csc(-c2ccc(CO)o2)n1`: the concentration for total growth inhibition (TGI) in the experiment on CAKI-1 renal, with COLO 205 colon, in the experiment with EKVX NSCLC, in the experiment with HL-60(TB) leukemia, with NCI-H226 lung and in the experiment on RPMI-8226 leukemia was above 100 µM throughout. The TGI with SK-MEL-28 melanoma, in the experiment with SN12C renal and in the experiment on UACC-62 melanoma was above 100 µM throughout.
On to `COc1cc(CC(=O)O)c([N+](=O)[O-])cc1OC`, for which the total growth inhibition concentration (TGI) with CAKI-1 renal, with COLO 205 colon, in the experiment with EKVX NSCLC, in the experiment with HL-60(TB) leukemia, in the experiment on NCI-H226 lung and with RPMI-8226 leukemia was above 100 µM each time. For the same compound, the TGI with SK-MEL-28 melanoma, with SN12C renal and in the experiment on UACC-62 melanoma was above 100 µM in each case.
On to `Cc1ccc(NC(=O)CC2SC(=Nc3ccc(Cl)cc3)NC2=O)cc1C` (stereo not given), for which the TGI in the experiment on CAKI-1 renal is 35.9 µM; with COLO 205 colon, 32.4 µM; in the experiment with EKVX NSCLC it was 31.4 µM; in the experiment with HL-60(TB) leukemia it was 9.12 µM; in the experiment on NCI-H226 lung, above 64.3 µM; in the experiment on RPMI-8226 leukemia, 21.2 µM. The figures for the TGI with SK-MEL-28 melanoma, in the experiment with SN12C renal and in the experiment with UACC-62 melanoma were 33.9 µM, 31.9 µM and 32.6 µM, respectively.
`CC[As](CC)SCC1OC(OC(C)=O)C(OC(C)=O)C(OC(C)=O)C1OC(C)=O` (stereo not given): the TGI in the experiment with CAKI-1 renal stood at 10.4 µM; with COLO 205 colon, 10 µM; with EKVX NSCLC, 37.2 µM; in the experiment on HL-60(TB) leukemia, 19.2 µM; in the experiment with NCI-H226 lung, 28.9 µM; with RPMI-8226 leukemia it was 36.2 µM. Besides, the TGI in the experiment on SK-MEL-28 melanoma was determined as 15.7 µM; in the experiment on SN12C renal, 28.4 µM; in the experiment with UACC-62 melanoma, 27.2 µM.
Turning to `CCn1ncc(N=O)c1N`, the concentration for total growth inhibition (TGI) with CAKI-1 renal, in the experiment on COLO 205 colon, with EKVX NSCLC, in the experiment with HS 578T breast, with RPMI-8226 leukemia and in the experiment on SK-MEL-28 melanoma was above 100 µM each time. Moreover, the TGI in the experiment with SN12C renal and with UACC-62 melanoma was above 100 µM each time.
In the case of `CN1C2(c3ccccc3)C(C(=O)c3ccccc3)=C(C(=O)c3ccccc3)C1(c1ccccc1)c1c(-c3ccccc3)sc(-c3ccccc3)c12`, the TGI in the experiment with CAKI-1 renal, in the experiment on COLO 205 colon, with EKVX NSCLC, with HL-60(TB) leukemia, in the experiment on NCI-H226 lung and with RPMI-8226 leukemia was above 100 µM throughout. In addition, the TGI with SK-MEL-28 melanoma, in the experiment with SN12C renal and in the experiment on UACC-62 melanoma was above 100 µM throughout.
Take `O=C(Cc1nc2ccccc2o1)C(=O)Nc1ccc(Cl)cc1Cl`: the TGI in the experiment on CAKI-1 renal, in the experiment with COLO 205 colon, in the experiment on EKVX NSCLC, with NCI-H226 lung, in the experiment with RPMI-8226 leukemia and with SK-MEL-28 melanoma was above 100 µM throughout. In addition, the TGI with SN12C renal and in the experiment with UACC-62 melanoma was above 100 µM throughout.
`O=C(CC(=O)c1cccc([N+](=O)[O-])c1)C(=O)Nc1ccccc1`: the TGI with CAKI-1 renal, with EKVX NSCLC, with HL-60(TB) leukemia, with NCI-H226 lung, with RPMI-8226 leukemia and in the experiment on SK-MEL-28 melanoma was above 100 µM throughout. Further, the TGI with SN12C renal and in the experiment on UACC-62 melanoma was above 100 µM each time.
As usually defined, the GI50 is the concentration giving 50% growth inhibition. Regarding `[CH3][Hg]/[N]=C(/N)NC#N`, the GI50 in the experiment with CAKI-1 renal is 12.9 µM; in the experiment with COLO 205 colon, 1.71 µM; with HL-60(TB) leukemia, 2.76 µM; with NCI-H226 lung, 15.6 µM; in the experiment with RPMI-8226 leukemia, 2.62 µM; with SK-MEL-28 melanoma, 11.9 µM. The GI50 with SN12C renal was 14 µM; in the experiment with UACC-62 melanoma, 11.4 µM. For the same compound, the TGI was 25.7 µM in the experiment on CAKI-1 renal; 3.09 µM in the experiment on COLO 205 colon; above 100 µM with HL-60(TB) leukemia; 32.5 µM in the experiment with NCI-H226 lung; above 100 µM in the experiment on RPMI-8226 leukemia; 30.1 µM with SK-MEL-28 melanoma. For the same compound, the total growth inhibition concentration (TGI) in the experiment with SN12C renal stood at 28.5 µM; in the experiment with UACC-62 melanoma, 23.9 µM.
As for `Cc1cc(C)nc(NS(=O)(=O)c2ccc(NC(=O)COC(=O)c3cccc4c(=O)c5ccccc5[nH]c34)cc2)n1`, the TGI was above 100 µM in the experiment on CAKI-1 renal; above 100 µM in the experiment with COLO 205 colon; above 100 µM in the experiment on EKVX NSCLC; 63.9 µM with HL-60(TB) leukemia; above 100 µM in the experiment with NCI-H226 lung; above 100 µM in the experiment with RPMI-8226 leukemia. Also, the TGI with SK-MEL-28 melanoma is above 100 µM; in the experiment on SN12C renal it was above 100 µM; in the experiment on UACC-62 melanoma, 34.3 µM.
Consider `Cc1cc(C)c(/C=N/NS(=O)(=O)c2ccccc2)c(C)c1`, for which the TGI with CAKI-1 renal, in the experiment on COLO 205 colon, in the experiment with EKVX NSCLC, with HL-60(TB) leukemia, in the experiment with NCI-H226 lung and in the experiment on RPMI-8226 leukemia was above 100 µM each time. In addition, the TGI with SK-MEL-28 melanoma, in the experiment with SN12C renal and in the experiment on UACC-62 melanoma was above 100 µM throughout.
As to `COc1ccc([C@@H]2OC(=O)C3C2C(=O)O[C@H]3c2ccc(OC)cc2)cc1` (stereo not given in full), the TGI in the experiment on CAKI-1 renal, in the experiment on COLO 205 colon, in the experiment on EKVX NSCLC, in the experiment on HL-60(TB) leukemia, in the experiment on RPMI-8226 leukemia and in the experiment with SK-MEL-28 melanoma was above 100 µM throughout. Further, the TGI with SN12C renal and in the experiment with UACC-62 melanoma was above 100 µM throughout.
With `CC1C(O)=C(O)c2ccccc2N1O` (stereo not given), the TGI in the experiment on CAKI-1 renal, in the experiment with COLO 205 colon, in the experiment with EKVX NSCLC, in the experiment with HL-60(TB) leukemia, with NCI-H226 lung and with RPMI-8226 leukemia was above 100 µM each time. Also, the TGI with SK-MEL-28 melanoma, in the experiment on SN12C renal and with UACC-62 melanoma was above 100 µM each time.
In the case of `O=C(O)CCC1c2[nH]c3ccccc3c2CCN1Cc1ccccc1` (stereo not given), the TGI in the experiment with CAKI-1 renal, in the experiment with COLO 205 colon, in the experiment on EKVX NSCLC, in the experiment with HL-60(TB) leukemia, with NCI-H226 lung and in the experiment on SK-MEL-28 melanoma was above 100 µM in each case. The TGI in the experiment on SN12C renal and in the experiment on UACC-62 melanoma was above 100 µM in each case.
For the compound `COC1C(=O)CCC2(CO2)C1(O)C1(C)OC1CC=C(C)C` (stereo not given), the TGI in the experiment with CAKI-1 renal, with COLO 205 colon, with EKVX NSCLC, in the experiment on HS 578T breast, in the experiment with SK-MEL-28 melanoma and with SN12C renal was above 100 µM in each case. In addition, the TGI in the experiment with UACC-62 melanoma amounted to 80.8 µM.

Values taken from PubChem BioAssay (NCI).
